Like-named read-outs stand apart in the source and are kept apart here.
Target: T1, human MRGPR X4 (Homo sapiens, UniProt Q96LA9)
T1 construct: expressed in transfected cells
Test: MRGPR X4 antagonist activity, IP-One Gq HTRF assay in stably transfected HEK cells
Type: cell-based
Protocol: HEK cells stably transfected to express human MIRGPR X4 were maintained in an incubator at 37° C. with 5% CO2 and grown in DMEM media with 10% fetal bovine serum (FBS) and […] each of sodium pyruvate, Glutamax, penicillin/streptomycin, and Geneticin. HEK cells stably transfected to express mouse MRGPR A1 were maintained in the same incubator and grown in DMEM media with 10% FBS, 1% each of sodium pyruvate, Glutamax, penicillin/streptomycin, Geneticin, and 2.2 mg/mL Hygromycin.
Cells were plated in a 384-well assay plate at 20,000 cells per well in 12 μL of Opti-MEM and kept in an incubator overnight. On the day of the assay, compounds solubilized at 10 mM in DMSO were added as a 10-point curve (10 uM final top concentration with 1:3 serial dilutions) using a Tecan D300E digital dispenser. Agonists were diluted in assay buffer (final concentrations of 5.7 mM Tris-HCl, 43 mM NaCl, 50 mM LiCl, pH=8) and 2 μL of the appropriate agonist are added to each well. Final concentrations of agonists were 10 μM bilirubin, 20 μM deoxycholic acid, or 100 μM conjugated bilirubin (obtained from Lee Biosolutions, catalog #910-12). Final concentrations of DMSO were kept consistent across the plate. Plates were incubated in the dark for 1 h at 37° C. and then for 30 minutes at room temperature. IP-1 standards and HTRF detection reagents were added according to the IP-One—Gq Kit purchased from Cisbio (part number 62IPAPEJ) and incubated in the dark for 1 h at room temperature. The plate was read on a Molecular Devices SpectraMax iD5 plate reader. The HTRF ratio was calculated from the raw data and graphed using GraphPad Prism to calculate an IC50 value for each compound.

[1] = versus 20 μM deoxycholic acid agonist, HEK cells expressing human MRGPR X4, read-out: MRGPRX4 Antagonist Activity

T1 sequence (Q96LA9 whole entry): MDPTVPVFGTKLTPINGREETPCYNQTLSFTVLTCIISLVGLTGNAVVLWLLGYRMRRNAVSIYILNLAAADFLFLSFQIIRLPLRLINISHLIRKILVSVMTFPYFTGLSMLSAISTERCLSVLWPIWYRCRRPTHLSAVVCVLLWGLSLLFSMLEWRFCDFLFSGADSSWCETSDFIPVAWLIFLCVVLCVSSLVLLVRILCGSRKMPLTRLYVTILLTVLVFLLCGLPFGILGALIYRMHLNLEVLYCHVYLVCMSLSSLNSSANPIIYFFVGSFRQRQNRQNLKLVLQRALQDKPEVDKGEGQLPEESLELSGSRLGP

Compound | IC50 [nM] | IC50 [1] [nM]
O=C(NCCc1nnc2ccccn12)c1nn(Cc2ncco2)c2ccccc12 [Compound 440] | > 2500 | –
COc1ccccc1Cn1nc(C(=O)NCCc2nnc3ccccn23)c2ccccc21 [Compound 430] | > 2500 | –
Cn1ccc(CNC(=O)c2nn(Cc3ccc(Cl)cc3)c3ccccc23)cc1=O [Compound 392] | 1000 to 2500 | –
O=C(NCCc1cnccn1)c1nn(Cc2ccc(Cl)cc2)c2ccccc12 [Compound 348] | 1000 to 2500 | –
Cc1ccc2c(c1)nc(Cn1nc(C(=O)NCCc3nnc4ccccn34)c3ccccc31)n2C [Compound 570] | > 2500 | –
O=C(NCCc1nc2ccccc2s1)c1nn(Cc2ccc(Cl)cc2)c2ccccc12 [Compound 46] | 100 to 500 | –
Cc1cccc(Cn2cc(C(=O)NCCc3ccc(Cl)c(F)c3)c3ccccc32)c1 [Compound 222] | 1000 to 2500 | –
O=C(NCCc1nnc2ccccn12)c1nn(Cc2ccc(Cl)cc2Cl)c2ccccc12 [Compound 525] | < 100 | –
O=C(NCCc1nnc2ccccn12)c1nn(Cc2csc(-c3ccccc3)n2)c2ccccc12 [Compound 512] | 100 to 500 | –
O=C(NCCN1CCCCC1=O)c1nn(Cc2ccc(Cl)cc2)c2ccccc12 [Compound 419] | 100 to 500 | –
O=C(NCCc1nnc2n1CCCCC2)c1nn(Cc2ccc(Cl)cc2)c2ccc(Cl)cc12 [Compound 8] | < 100 | –
O=C(NCCc1nnc2ccccn12)c1nn(Cc2ccc3nsnc3c2)c2ccccc12 [Compound 477] | < 100 | –
Cc1cccc2c1c(C(=O)NCCc1nnc3ccccn13)nn2Cc1ccc(Cl)cc1 [Compound 565] | < 100 | –
O=C(Cn1nc(C(=O)NCCc2nnc3ccccn23)c2ccccc21)c1cc2ccccc2o1 [Compound 503] | – | 501 to 1000
N#Cc1ccc2c(C(=O)NCCc3nnc4ccccn34)nn(Cc3ccc(Cl)cc3)c2c1 [Compound 542] | < 100 | –
CC(C)c1ccc(Cn2nc(C(=O)NCCc3nnc4n3CCCCC4)c3ccccc32)cc1 [Compound 35] | 100 to 500 | –
O=C(NCCc1nnc2ccccn12)c1nn(Cc2ccc3ccccc3c2)c2ccc(F)cc12 [Compound 532, N-(2-([1,2,4]triazolo[4,3-a]pyridin-3-yl)ethyl)-5-fluoro-1-(naphthalen-2-ylmethyl)-1H-indazole-3-carboxamide] | < 100 | –
Cc1ccc(Cn2nc(C(=O)NCCc3cc4ccccc4s3)c3ccccc32)cc1 [Compound 84] | 501 to 1000 | –
O=C(O)c1nn(Cc2ccc(Cl)cc2)c2ccc(Cl)cc12 [Compound 320] | 1000 to 2500 | –
O=C(NCCc1nnc2n1CCCCC2)c1nn(Cc2ccc(C(F)(F)F)cc2)c2ccccc12 [Compound 5] | < 100 | –

Compound | IC50 [nM] | IC50 [1] [nM]
O=C(NCCC(=O)N1CCCC1)c1nn(Cc2ccc(Cl)cc2)c2ccccc12 [Compound 403] | 100 to 500 | –
COc1ccc(Cn2nc(C(=O)NS(=O)(=O)c3cccc(C)c3)c3ccccc32)cc1 [Compound 293] | – | 1000 to 2500
O=C(NCCc1nnc2ccccn12)c1nn(Cc2cnc3ccccc3c2)c2ccccc12 [Compound 455] | 100 to 500 | –
COc1ccc(Cn2cc(C(=O)NCCc3cccnc3)c3ccccc32)cc1 [Compound 176] | 100 to 500 | –
CCn1c(Cn2nc(C(=O)NCCc3nnc4ccccn34)c3ccccc32)nc2ccccc21 [Compound 480] | 501 to 1000 | –
O=C(NS(=O)(=O)c1cccc(C(F)(F)F)c1)c1nn(Cc2ccc(OC(F)F)cc2)c2ccccc12 [Compound 265] | – | 501 to 1000
Cc1ccc(Cn2nc(C(=O)NCCc3cn(C)c4ccccc34)c3ccccc32)cc1 [Compound 94] | 1000 to 2500 | –
O=C(NCCc1nnc2ccccn12)c1nn(Cc2cccc3ccccc23)c2ccccc12 [Compound 474] | 100 to 500 | –
COc1ccc(S(=O)(=O)NC(=O)c2nn(Cc3ccc(OC(F)F)cc3)c3ccccc23)cc1C [Compound 275] | – | 1000 to 2500
O=C(NS(=O)(=O)c1cccc(F)c1)c1nn(Cc2ccc(OC(F)F)cc2)c2ccccc12 [Compound 267] | – | 501 to 1000
Cc1ccc(Cn2nc(C(=O)NCCc3noc(C4CC4)n3)c3ccccc32)cc1 [Compound 83] | 501 to 1000 | –
Cc1cccc(NC(=O)CS(=O)(=O)c2cn(Cc3ccc(Cl)cc3)c3ccccc23)c1 [Compound 243] | – | 501 to 1000
O=C(NCCc1cccnc1)c1nn(Cc2cccc(Cl)c2)c2ccccc12 [Compound 87] | 501 to 1000 | –
Cc1ccc(Cn2nc(C(=O)O)c3cc(Cl)ccc32)cc1 [Compound 330] | > 2500 | –
O=C(Cn1nc(C(=O)NCCc2nnc3ccccn23)c2ccccc21)c1ccc(F)c(F)c1 [Compound 517] | 1000 to 2500 | –
O=C(NCCc1ccc(C(F)(F)F)nc1)c1nn(Cc2ccc(Cl)cc2)c2ccccc12 [Compound 86] | 501 to 1000 | –
O=S(=O)(NCCc1ccc(Cl)c(F)c1)c1cn(Cc2ccc(Cl)cc2)c2ccccc12 [Compound 314] | – | 1000 to 2500
O=C(NCCc1nc2c(s1)CCCC2)c1nn(Cc2ccc(Cl)c(Cl)c2)c2ccccc12 [Compound 56] | 100 to 500 | –
COc1cccc(Cn2nc(C(=O)NCCc3cccnc3)c3ccccc32)c1 [Compound 101] | 1000 to 2500 | –
Cc1ccc(Cn2nc(C(=O)NCCc3nc(C)cs3)c3ccccc32)cc1 [Compound 38] | 100 to 500 | –

Compound | IC50 [nM] | IC50 [1] [nM]
Cc1ccc(Cn2cc(C(=O)NCc3ccccn3)c3ccccc32)cc1 [Compound 229] | > 2500 | –
Cc1noc(CCNC(=O)c2nn(Cc3ccc(Cl)cc3)c3ccccc23)n1 [Compound 420] | 1000 to 2500 | –
O=C(NCCc1cccnc1)c1nn(Cc2ccccc2F)c2ccccc12 [Compound 125] | > 2500 | –
O=C(NCc1cnc2ccccc2c1)c1nn(Cc2ccc(Cl)cc2)c2ccccc12 [Compound 370] | > 2500 | –
Cc1ccccc1CS(=O)(=O)NC(=O)c1nn(Cc2ccc(Cl)cc2)c2ccccc12 [Compound 288] | – | 1000 to 2500
COc1ccc(C)c(S(=O)(=O)NC(=O)c2nn(Cc3cccc(F)c3)c3ccccc23)c1 [Compound 257] | – | > 2500
CS(=O)(=O)c1ccccc1CNC(=O)c1nn(Cc2ccc(Cl)cc2)c2ccccc12 [Compound 379] | > 2500 | –
O=C(NCCc1nnc2ccccn12)c1nn(Cc2cccc(C(F)(F)F)c2F)c2ccccc12 [Compound 459] | 100 to 500 | –
O=C(NCCc1cccnc1)c1cn(Cc2ccc(OC(F)(F)F)cc2)c2ccccc12 [Compound 173] | 100 to 500 | –
O=C(NCCc1noc2ccccc12)c1nn(Cc2ccc(Cl)cc2)c2ccccc12 [Compound 45] | 100 to 500 | –
O=C(NCCc1cccnc1)c1nn(Cc2ccc(F)cc2)c2ccccc12 [Compound 57] | 100 to 500 | –
O=C(NS(=O)(=O)c1ccc(Cl)cc1Cl)c1nn(Cc2ccc(OC(F)F)cc2)c2ccccc12 [Compound 294] | – | 1000 to 2500
CC(C)NC(=O)CS(=O)(=O)c1cn(Cc2ccc(Cl)cc2)c2ccccc12 [Compound 248] | – | 1000 to 2500
N#Cc1ccc(CCNC(=O)c2cn(Cc3ccc(Cl)cc3)c3ccccc23)cn1 [Compound 185] | 501 to 1000 | –
Cn1ccc(CNC(=O)c2nn(Cc3ccc(Cl)cc3)c3ccccc23)n1 [Compound 354] | > 2500 | –
O=C(NCCc1ccon1)c1nn(Cc2ccc(Cl)cc2)c2ccccc12 [Compound 100] | 1000 to 2500 | –
Cc1ccc(Cn2nc(C(=O)NS(=O)(=O)c3cccc(C)c3)c3ccccc32)cc1 [Compound 297] | – | > 2500
O=C(NCCc1nnc2ccccn12)c1nn(Cc2ccc(OC(F)F)cc2)c2ccccc12 [Compound 463] | < 100 | –
Cc1cccc2nc(Cn3nc(C(=O)NCCc4nnc5ccccn45)c4ccccc43)n(C)c12 [Compound 569] | 100 to 500 | –

Source: patent US20240254089A1, “MODULATORS OF MAS-RELATED G-PROTEIN RECEPTOR X4 AND RELATED PRODUCTS AND METHODS” (ESCIENT PHARMACEUTICALS, INC., priority 2020, published 2024)
